# Marks after values point to notes of the source that are not given here.
# Key:
# in vitro = format: cell-based; conditions: human, BJ1 normal skin fibroblast cells, 100 μg/mL
# [1] = system: normal skin fibroblast cell line (BJ1); test: cells; format: cell-based; conditions: Homo sapiens, Skin fibroblast, MTT, 48 h
# HCT116 [2] = test: DNA fragmentation assay, HCT116; format: cell-based, human
# HCT116 [3] = test: DNA damage, comet assay, HCT116; format: cell-based, human
# KRAS = test: qRT-PCR, KRAS in A549 cells; format: cell-based, human; conditions: versus negative samples
# BRCA1 = test: qRT-PCR, BRCA1 in PC3 cells; format: cell-based, human; conditions: versus negative samples
# skin cancer (A431) = test: cells; format: cell-based; conditions: Homo sapiens, 48 h
# [4] = system: pancreatic cancer cell line (PACA2); test: cells; format: cell-based; conditions: Homo sapiens, 48 h
# PALB2 = test: qRT-PCR, PALB2 in PACA2 cells; format: cell-based, human; conditions: versus negative untreated sample
# BRCA2 = test: qRT-PCR, BRCA2 in PC3 cells; format: cell-based, human; conditions: versus negative samples
# TP53 = test: qRT-PCR, TP53 in HCT116 cells; format: cell-based, human; conditions: versus negative samples
# Experimental: RNA was extracted from pancreas, prostate, lung and liver cell lines using a total RNA purification kit (Qiagen, Hilden, Germany) according to the manufacturer's instructions. An aliquot of RNA was diluted in RNase-free water to estimate RNA quantity. Aliquots were used immediately for reverse transcription (RT). cDNA synthesis was performed on extracted RNA, which was treated with DNase (Invitrogen, Germany) to remove any possible DNA contamination. The DNase-treated RNA was reverse transcribed into first-strand cDNA using the RevertAid First Strand cDNA Synthesis kit (Fermantas) according to the manufacturer's instructions. Determination of the pancreas, prostate, lung and liver cell line cDNA copy number was carried out using StepOne™ Real-Time PCR System from Applied Biosystems (Thermo Fisher Scientific, Waltham, MA USA). Gene expressions were detected by real-time PCR, which was performed using the Rotor-Gene Q system (Qiagen Company). A 25 µL reaction mixture consisted of 12.5 µL SYBR® Premix Ex TaqTM (TaKaRa, Biotech. Co. Ltd.), 0.5 µL of each primer (10 PMole) (Table 1), 1 µL cDNA (50 ng) and 10.5 µL RNase free water. The optimum amplification conditions were chosen empirically according to each tested gene. Generally, the amplification conditions include initial incubation (95.0 °C for 3 min), then 40 cycles of amplification with denaturation (95.0 °C for 15 s), annealing (55.0 °C for 30 s) and extension (72.0 °C for 30 s) steps then 71 cycles which started at 60.0 °C and then increased about 0.5 °C every 10 s up to 95.0 °C. Mean cycle threshold (Ct) values of triplicate samples are used for analysis. The Ct value indicates the fractional cycle number at which the amount of amplified target reaches a fixed threshold. Data from real-time PCR were analyzed using 2^−∆∆Ct method[38]–[40]. Data were represented as the fold change in target gene expression normalized to a House-Keeping gene (HKG) and relative to the control. β-actin was used as a HKG to normalize input RNA amount, RNA quality and reverse transcription efficiency.
# PC3 [5] = test: DNA damage, comet assay, PC3; format: cell-based, human
# A549 [6] = test: DNA damage, comet assay, A549; format: cell-based, human; conditions: of 400 cells analyzed
# prostate cancer (PC3) = test: cells; format: cell-based; conditions: Homo sapiens, 48 h
# PACA2 [7] = test: DNA fragmentation assay, PACA2; format: cell-based, human
# PC3 [8] = test: DNA fragmentation assay, PC3; format: cell-based, human
# [9] = system: osteosarcoma cell line (HOS); test: cells; format: cell-based; conditions: Homo sapiens, 48 h
# [10] = system: human lung carcinoma (A549); test: cells; format: cell-based; conditions: 48 h
# colon cancer (HCT116) = test: cells; format: cell-based; conditions: Homo sapiens, 48 h
# A549 [11] = test: DNA fragmentation assay, A549; format: cell-based, human
# [12] = system: hepatocellular carcinoma cell line (HePG2); test: cells; format: cell-based; conditions: Homo sapiens, 48 h
# FASN = test: qRT-PCR, FASN in HCT116 cells; format: cell-based, human; conditions: versus negative samples
# CDKN2A = test: qRT-PCR, CDKN2A in PACA2 cells; format: cell-based, human; conditions: versus negative untreated sample
# PACA2 [13] = test: DNA damage, comet assay, PACA2; format: cell-based, human
# EGFR = test: qRT-PCR, EGFR in A549 cells; format: cell-based, human; conditions: versus negative samples
smiles,measurement,setting,value
"COc1cccc2c1C(=O)c1c(O)c3c(c(O)c1C2=O)C[C@@](O)(C(=O)CO)C[C@@H]3O[C@H]1C[C@H](N)[C@H](O)[C@H](C)O1 [Doxorubicin, reference compound]","mortality at 48 h, 100 µg/mL",in vitro,100%
same,IC50,[1],24.8 ± 0.52 µM
same,Change (DNA fragmentation versus untreated cells),HCT116 [2],21.00
same,Inhibition,HCT116 [2]; doxorubicin = 0.00,0.00
same,DNA damaged cells % (mean ± SEM),HCT116 [3],21.26 ± 0.48^ab %
same,"Class 0 (no tail), number of cells",HCT116 [3]; of 400 cells analyzed,315
same,"Class 1 (tail length < diameter of nucleus), number of cells",HCT116 [3]; of 400 cells analyzed,33
same,"Class 2 (tail length between 1 and 2 × the diameter of nucleus), number of cells",HCT116 [3]; of 400 cells analyzed,24
same,"Class 3 (tail length > 2 × the diameter of nucleus), number of cells",HCT116 [3]; of 400 cells analyzed,28
same,"No. of cells, Comets",HCT116 [3]; of 400 cells analyzed,85
same,KRAS gene expression level,KRAS,significant reduction
same,BRCA1 gene expression level,BRCA1,decreased significantly
same,mortality at 100 µg/mL,"skin cancer (A431); A-431, 100 μg/mL",100%
same,IC50,"skin cancer (A431); A-431, MTT",45.8 ± 0.15 µM
same,mortality at 100 µg/mL,"[4]; PaCa-2, 100 μg/mL",100%
same,IC50,"[4]; PaCa-2, MTT",52.1 ± 0.19 µM
same,PALB2 gene expression level,PALB2,significantly reduced
same,BRCA2 gene expression level,BRCA2,decreased significantly
same,TP53 gene expression level,TP53,suppression
same,DNA damaged cells % (mean ± SEM),PC3 [5],20.76 ± 1.38^b %
same,"Class 0 (no tail), number of cells",PC3 [5]; of 400 cells analyzed,317
same,"Class 1 (tail length < diameter of nucleus), number of cells",PC3 [5]; of 400 cells analyzed,39
same,"Class 2 (tail length between 1 and 2 × the diameter of nucleus), number of cells",PC3 [5]; of 400 cells analyzed,30
same,"Class 3 (tail length > 2 × the diameter of nucleus), number of cells",PC3 [5]; of 400 cells analyzed,14
same,"No. of cells, Comets",PC3 [5]; of 400 cells analyzed,83
same,"Class 0 (no tail), number of cells",A549 [6],314
same,"Class 1 (tail length < diameter of nucleus), number of cells",A549 [6],25
same,"Class 2 (tail length between 1 and 2 × the diameter of nucleus), number of cells",A549 [6],32
same,"Class 3 (tail length > 2 × the diameter of nucleus), number of cells",A549 [6],29
same,"No. of cells, Comets",A549 [6],86
same,mortality at 100 µg/mL,prostate cancer (PC3); 100 μg/mL,100%
same,IC50,prostate cancer (PC3); MTT,43.8 ± 0.47 µM
same,Change (DNA fragmentation versus untreated cells),PACA2 [7],18.00
same,DNA fragmentation % M ± SEM,"PACA2 [7]; IC50 concentration, 24 h",30.1 ± 0.62^b %
same,Inhibition,PACA2 [7]; doxorubicin = 0.0,0.0
same,Change (DNA fragmentation versus untreated cells),PC3 [8],20.1
same,DNA fragmentation % M ± SEM,"PC3 [8]; IC50 concentration, 24 h",31.7 ± 0.85^b %
same,Inhibition,PC3 [8]; doxorubicin = 0.0,0.0
same,mortality at 100 µg/mL,[9]; 100 μg/mL,100%
same,IC50,[9]; MTT,24.3 ± 0.24 µM
same,mortality at 100 µg/mL,[10]; 100 μg/mL,100%
same,IC50,[10]; MTT,52.1 ± 0.28 µM
same,mortality at 100 µg/mL,"colon cancer (HCT116); HCT-116, 100 μg/mL",100%
same,IC50,"colon cancer (HCT116); HCT-116, MTT",69.2 ± 0.1 µM
same,Change (DNA fragmentation versus untreated cells),A549 [11],19.5
same,DNA fragmentation % M ± SEM,"A549 [11]; IC50 concentration, 24 h",30.9 ± 1.64^a %
same,Inhibition,A549 [11]; doxorubicin = 0.0,0.0
same,mortality at 100 µg/mL,[12]; 100 μg/mL,100%
same,IC50,[12]; MTT,39.7 ± 0.18 µM
same,FASN gene expression level,FASN,suppression
same,CDKN2A gene expression level,CDKN2A,significantly reduced
same,DNA damaged cells % (mean ± SEM),PACA2 [13],20.25 ± 0.75^a %
same,"Class 1 (tail length < diameter of nucleus), number of cells",PACA2 [13]; of 400 cells analyzed,28
same,"Class 2 (tail length between 1 and 2 × the diameter of nucleus), number of cells",PACA2 [13]; of 400 cells analyzed,26
same,"Class 3 (tail length > 2 × the diameter of nucleus), number of cells",PACA2 [13]; of 400 cells analyzed,27
same,"No. of cells, Comets",PACA2 [13]; of 400 cells analyzed,81
same,EGFR gene expression level,EGFR,significant reduction

# — article PMC10579241, “Impact of trifluoromethyl and sulfonyl groups on the biological activity of novel aryl-urea derivatives: synthesis, in-vitro, in-silico and SAR studies” (Scientific Reports, 2023)
